Tests used:
[1] = Oral bioavailability in dog; assay type: ADME, organism-based, Canis lupus familiaris; conditions: in vivo
[2] = Oral bioavailability in rat; assay type: ADME, organism-based; conditions: in vivo
[3] = molecular target: Trypsin (Homo sapiens, UniProt P07477+P07478+P35030); assay: Binding affinity against human trypsin; assay type: protein assay
[4] = molecular target: Coagulation factor X (Homo sapiens, UniProt P00742); assay: Binding affinity of the compoumd to human coagulation factor Xa
[5] = molecular target: Prothrombin (Homo sapiens, UniProt P00734); assay: Binding affinity against human thrombin.
[6] = Solubility in pH 7.0 phosphate buffer; assay type: physicochemical
[7] = molecular target: Serine protease 1 (Homo sapiens, UniProt P07477); assay: Binding affinity of the compoumd against human trypsin was determined
Serine protease 1, sequence (P07477 whole entry): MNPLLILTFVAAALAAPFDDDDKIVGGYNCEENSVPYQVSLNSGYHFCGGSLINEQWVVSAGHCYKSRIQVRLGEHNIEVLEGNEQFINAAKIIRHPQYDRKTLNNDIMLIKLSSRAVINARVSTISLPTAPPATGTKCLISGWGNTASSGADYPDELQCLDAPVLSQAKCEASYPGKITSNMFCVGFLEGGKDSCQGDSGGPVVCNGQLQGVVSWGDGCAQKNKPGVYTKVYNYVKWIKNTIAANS

Coagulation factor X, sequence (P00742 41-179 limits assumed): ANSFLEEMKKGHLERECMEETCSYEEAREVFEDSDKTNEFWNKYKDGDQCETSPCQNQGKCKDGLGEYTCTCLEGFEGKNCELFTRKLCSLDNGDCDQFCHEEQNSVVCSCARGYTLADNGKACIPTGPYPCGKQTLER
Coagulation factor X, sequence (P00742 235-488 limits assumed): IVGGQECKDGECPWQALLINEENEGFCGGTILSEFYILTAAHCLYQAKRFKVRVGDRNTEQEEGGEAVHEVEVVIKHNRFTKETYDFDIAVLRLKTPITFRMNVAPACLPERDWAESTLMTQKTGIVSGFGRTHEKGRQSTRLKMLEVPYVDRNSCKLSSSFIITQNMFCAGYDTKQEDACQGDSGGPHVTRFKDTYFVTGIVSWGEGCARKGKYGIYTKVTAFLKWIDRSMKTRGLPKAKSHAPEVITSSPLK

Row | bioavailability [1] [%] | bioavailability [2] [%] | IC50 [3] [µM] | IC50 [4] [µM] | IC50 [5] [µM] | solubility [6] [µg/mL] | IC50 [7] [µM] | SMILES
1 | < 20 | < 20 | – | – | – | < 10 | – | Cc1cc(NC(=O)Cc2ccc3[nH]c(-c4ccc(Cl)s4)nc3c2)ccc1N1CCOCC1=O
2 | < 20 | < 20 | > 10 | 1.2 | > 10 | < 10 | – | O=C(Cc1ccc(N2CCOCC2=O)cc1)Nc1ccc2[nH]c(-c3ccc(Cl)s3)nc2c1
3 | < 20 | < 20 | – | 0.007 | > 10 | < 10 | > 10 | O=C(CCc1ccc2[nH]c(-c3ccc(Cl)s3)nc2c1)Nc1ccc(N2CCOCC2=O)c(Cl)c1
4 | < 20 | < 20 | > 10 | 0.02 | > 10 | < 10 | – | Cc1cc(NC(=O)COc2ccc3[nH]c(-c4ccc(Cl)s4)nc3c2)ccc1N1CCOCC1=O
5 | < 20 | < 20 | > 10 | 0.0082 | > 10 | < 10 | – | Cc1cc(NC(=O)CCc2ccc3[nH]c(-c4ccc(Cl)s4)nc3c2)ccc1N1CCOCC1=O
6 | < 20 | < 20 | – | – | – | < 10 | – | O=C(CCc1ccc2[nH]c(-c3ccc(Cl)s3)nc2c1)Nc1ccc(N2CCOCC2=O)cc1
7 | < 20 | < 20 | > 10 | – | > 10 | < 10 | – | O=C(Cc1ccc2[nH]c(-c3ccc(Cl)s3)nc2c1)Nc1ccc(N2CCOCC2=O)cc1
8 | < 20 | < 20 | – | – | > 10 | < 10 | > 10 | O=C(CCc1ccc2nc(-c3ccc(Cl)s3)[nH]c2c1)Nc1ccc(N2CCOCC2=O)cc1F
9 | < 20 | < 20 | > 10 | 0.0084 | > 10 | < 10 | – | Cc1cc(NC(=O)CCc2ccc3[nH]c(-c4ccc(Br)s4)nc3c2)ccc1N1CCOCC1=O

Second part, the molecule before the results:

Row | SMILES | bioavailability [1] [%] | bioavailability [2] [%] | IC50 [3] [µM] | IC50 [4] [µM] | IC50 [5] [µM] | solubility [6] [µg/mL] | IC50 [7] [µM]
10 | O=C(Cc1ccc2[nH]c(-c3ccc(Cl)s3)nc2c1)Nc1ccc(N2CCCCC2=O)cc1 | < 20 | < 20 | > 10 | 0.26 | > 10 | < 10 | –
11 | CC1CC(=O)NN=C1c1ccc2[nH]c(-c3ccc(Cl)s3)nc2c1 (centres undefined) | < 20 | < 20 | > 10 | – | > 10 | < 10 | –
12 | CS(=O)(=O)c1ccccc1-c1ccc(NC(=O)Cc2ccc3[nH]c(-c4ccc(Cl)s4)nc3c2)cc1 | < 20 | < 20 | > 10 | – | > 10 | < 10 | –
13 | O=C(CCc1ccc2nc(-c3ccc(Br)s3)[nH]c2c1)NCC1CCN(c2ccncc2)CC1 | < 20 | < 20 | – | 0.058 | – | < 10 | –
14 | O=C(COc1ccc2[nH]c(-c3ccc(Cl)s3)nc2c1)Nc1ccc(N2CCOCC2=O)cc1 | < 20 | < 20 | – | 0.15 | – | < 10 | –
15 | O=C(CNC(=O)Nc1ccc(Cl)cc1)Nc1ccc(N2CCOCC2=O)cc1 | < 20 | < 20 | – | 0.032 | > 10 | < 10 | > 10
16 | CCC[C@@H](NC(=O)Nc1ccc(Cl)cc1)C(=O)Nc1ccc(N2CCOCC2=O)cc1 | < 20 | < 20 | – | – | > 10 | < 10 | > 10
17 | O=C(NCc1ccc2[nH]c(-c3ccc(Cl)s3)nc2c1)c1ccc(N2CCOCC2=O)cc1 | < 20 | < 20 | > 10 | 0.44 | > 10 | < 10 | –
18 | N=C(N)c1cccc(N[C@H](C(=O)Nc2ccc(N3CCCCC3=O)cc2)c2ccccc2)c1 | < 20 | < 20 | – | 0.015 | – | < 10 | –
19 | O=C(Cc1ccc2[nH]c(-c3ccc(Cl)s3)nc2c1)NCc1ccc(N2CCOCC2=O)cc1 | < 20 | < 20 | – | 0.17 | – | < 10 | –
20 | Cc1cc(NC(=O)Cc2ccc3[nH]c(-c4ccc(Cl)s4)nc3c2)ccc1-n1ccccc1=O | < 20 | < 20 | – | 0.18 | – | < 10 | –
21 | CC1CC(=O)NN=C1c1ccc2[nH]c(-c3ccc(Br)s3)nc2c1 (centres undefined) | < 20 | < 20 | – | 0.98 | > 10 | < 10 | > 10
22 | Cc1cc(NC(=O)Cc2ccc3[nH]c(-c4ccc(Br)s4)nc3c2)ccc1N1CCOCC1=O | < 20 | < 20 | – | 0.041 | – | < 10 | –
23 | O=C(Cc1ccc2[nH]c(-c3ccc(Br)s3)nc2c1)NCC1CCN(c2ccncc2)CC1 | < 20 | < 20 | > 10 | 0.0052 | > 10 | < 10 | –
24 | O=C(CCc1ccc2[nH]c(-c3ccc(Cl)s3)nc2c1)Nc1ccc(-n2ccccc2=O)c(F)c1 | < 20 | < 20 | – | 0.0076 | > 10 | < 10 | > 10
25 | O=C(Nc1ccc(N2CCOCC2=O)cc1)c1ccc2[nH]c(-c3ccc(Cl)s3)nc2c1 | < 20 | < 20 | > 10 | – | > 10 | < 10 | –
26 | O=C(Cc1ccc2[nH]c(-c3ccc(Cl)s3)nc2c1)NCC1CCN(c2ccncc2)CC1 | < 20 | < 20 | > 10 | 0.014 | > 10 | < 10 | –
27 | O=C(Cc1ccc2[nH]c(-c3ccc(Br)s3)nc2c1)Nc1ccc(-n2ccccc2=O)cc1 | < 20 | < 20 | > 10 | 0.063 | > 10 | < 10 | –
28 | O=C(Cc1ccc2[nH]c(-c3ccc(Cl)s3)nc2c1)Nc1ccc(N2CCCC2=O)cc1 | < 20 | < 20 | > 10 | 0.53 | > 10 | < 10 | –

Source: ChEMBL document CHEMBL1146806, “Halothiophene benzimidazoles as P1 surrogates of inhibitors of blood coagulation factor Xa” (Bioorg Med Chem Lett, 2004)
